Experimental findings from ChEMBL document CHEMBL1201862, “PubChem BioAssay data set” (2004) are described below.

Test systems include CCRF-CEM; HOP-62; SK-OV-3; PC-3; Hs-578T; A549; NCI-H460; SN12C; EKVX; COLO 205; RPMI-8226; IGROV-1; MCF7; SW-620; NCI-H226; RXF 393; HCC 2998; SF-539; ACHN; T47D.
What all share (assay): NCI tumour cell line growth inhibition, 48 h

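96-well plates; 48 h exposure; 5 concentrations. Endpoints by linear interpolation between flanking doses. Not reached: highest tested concentration assigned. Abbreviation: GI50, concentration required for 50% inhibition of growth.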 Activity calls are given as the source filed them. Cut-off read from the data, not from the text of the source: active = GI50 up to about 1.1 µM and inactive = higher.

Regarding `CC(=O)C(CN1CCOCC1)C(c1ccccc1)c1c(O)c2ccccc2oc1=O` (stereo not given), the GI50 in the assay with CCRF-CEM, with HOP-62, in the assay on SK-OV-3, with PC-3, in the assay with Hs-578T and with A549 was > 100 µM (inactive) in each case. The GI50 in the assay on NCI-H460 is > 100 µM (inactive); in the assay on SN12C, > 100 µM (inactive); in the assay on EKVX, > 100 µM (inactive); with COLO 205, > 100 µM (inactive); with RPMI-8226 it was 43.1 µM (inactive); with IGROV-1 it was > 100 µM (inactive). Also, the GI50 in the assay with MCF7 is > 100 µM (inactive); in the assay on SW-620, > 100 µM (inactive); in the assay with NCI-H226, > 100 µM (inactive); with RXF 393 it was 31.6 µM (inactive); in the assay with HCC 2998 it was > 100 µM (inactive); in the assay on SF-539, > 100 µM (inactive). The GI50 with ACHN and with T47D was > 100 µM (inactive) throughout.

As for `O=C(ON=C1c2ccccc2C(Br)C(Br)c2ccccc21)c1cc([N+](=O)[O-])cc([N+](=O)[O-])c1` (stereo not given), the GI50 in the assay on CCRF-CEM is 0.787 µM (active); with HOP-62 it was 18 µM (inactive); in the assay on SK-OV-3 it was 27.1 µM (inactive); with PC-3, 28.5 µM (inactive); with Hs-578T, 23 µM (inactive); with A549 it was 30.4 µM (inactive). Further, the GI50 in the assay on NCI-H460 was 19.2 µM (inactive); in the assay with SN12C, 18.5 µM (inactive); in the assay on EKVX it was 25.4 µM (inactive); with COLO 205 it was 20.3 µM (inactive); in the assay on RPMI-8226, 6.81 µM (inactive); with IGROV-1, 2.8 µM (inactive). Also, the GI50 was 24.7 µM (inactive) with MCF7; 18.7 µM (inactive) in the assay with SW-620; 24.9 µM (inactive) in the assay with NCI-H226; 19.6 µM (inactive) in the assay on RXF 393; 29.4 µM (inactive) in the assay with HCC 2998; 18 µM (inactive) in the assay with SF-539. Moreover, the figures for the GI50 in the assay with ACHN and in the assay with T47D were 21.3 µM (inactive) and 35.2 µM (inactive), respectively.

On to `Cc1ccc(/C=N/n2c(-c3ccc(C)cc3)n[nH]c2=O)cc1`, for which the GI50 with CCRF-CEM was 21.5 µM (inactive); with HOP-62 it was 61.9 µM (inactive); in the assay with SK-OV-3 it was 28.7 µM (inactive); in the assay on PC-3, > 100 µM (inactive); with Hs-578T it was > 100 µM (inactive); with A549 it was 41 µM (inactive). Besides, the GI50 in the assay on NCI-H460 was 21.5 µM (inactive); in the assay on SN12C it was 94.6 µM (inactive); with EKVX it was > 100 µM (inactive); in the assay with COLO 205, > 100 µM (inactive); in the assay with RPMI-8226, > 100 µM (inactive); in the assay on IGROV-1, > 100 µM (inactive). Also, the GI50 is > 100 µM (inactive) with MCF7; > 100 µM (inactive) with SW-620; > 100 µM (inactive) with NCI-H226; 23.1 µM (inactive) with RXF 393; > 100 µM (inactive) with HCC 2998; 50.4 µM (inactive) in the assay with SF-539. Also, the GI50 was 79.8 µM (inactive) in the assay on ACHN and > 100 µM (inactive) in the assay with T47D.

In the case of `C=Cc1c(C)c2cc3nc(c4c5[nH]c(cc6nc(cc1[nH]2)C(C)=C6CC)c(C)c5C(=O)C4C(=O)OC)C(CCC(=O)OC)C3C` (stereo not given), the GI50 with CCRF-CEM was > 100 µM (inactive); in the assay with HOP-62 it was > 100 µM (inactive); in the assay on SK-OV-3 it was > 100 µM (inactive); with PC-3 it was > 100 µM (inactive); in the assay on Hs-578T, 81.3 µM (inactive); in the assay on A549, > 100 µM (inactive). For the same molecule, the GI50 with NCI-H460, with SN12C, in the assay with EKVX, with COLO 205, in the assay with RPMI-8226 and in the assay with IGROV-1 was > 100 µM (inactive) each time. Further, the GI50 with MCF7 is > 100 µM (inactive); with SW-620, > 100 µM (inactive); in the assay on NCI-H226, > 100 µM (inactive); in the assay on RXF 393 it was > 100 µM (inactive); with HCC 2998 it was 59.7 µM (inactive); with SF-539, > 100 µM (inactive). The GI50 with ACHN and in the assay with T47D was > 100 µM (inactive) throughout.

`CC(=O)c1c(SCCN2CCCC2)n(-c2ccccc2)c(=S)n(-c2ccccc2)c1=O`: the GI50 with CCRF-CEM was 1.7 µM (inactive); with HOP-62 it was 22.4 µM (inactive); in the assay with SK-OV-3, 45.3 µM (inactive); in the assay on PC-3 it was 3.56 µM (inactive); in the assay with Hs-578T, 17.6 µM (inactive); in the assay on A549, 5.82 µM (inactive). Besides, the GI50 in the assay on NCI-H460 is 17.9 µM (inactive); in the assay with SN12C, 7.16 µM (inactive); in the assay on EKVX, 17 µM (inactive); in the assay on COLO 205, 1.76 µM (inactive); in the assay with RPMI-8226, 1.51 µM (inactive); in the assay with IGROV-1, 7.03 µM (inactive). For the same molecule, the GI50 was 1.33 µM (inactive) in the assay on MCF7; 2.34 µM (inactive) in the assay with SW-620; 20.9 µM (inactive) in the assay with NCI-H226; 2.3 µM (inactive) in the assay with RXF 393; 3.1 µM (inactive) in the assay with HCC 2998; 6.12 µM (inactive) in the assay with SF-539. Besides, the GI50 was 1.72 µM (inactive) in the assay with ACHN and 2.11 µM (inactive) in the assay on T47D.

With `C/C(=N\NC(N)=S)c1sc(-n2nc(-c3ccccc3)cc2-c2ccccc2)nc1C`, the GI50 in the assay with CCRF-CEM was 36.5 µM (inactive); in the assay on HOP-62, > 100 µM (inactive); in the assay on SK-OV-3 it was 62.1 µM (inactive); in the assay on PC-3, 63.1 µM (inactive); with Hs-578T it was > 100 µM (inactive); in the assay on A549, > 100 µM (inactive). Besides, the GI50 with NCI-H460 was > 100 µM (inactive); with SN12C it was > 100 µM (inactive); with EKVX it was 50.1 µM (inactive); in the assay with COLO 205, > 100 µM (inactive); in the assay with RPMI-8226 it was 16.9 µM (inactive); with IGROV-1, 16 µM (inactive). The GI50 in the assay with MCF7 is 51.6 µM (inactive); with SW-620 it was > 100 µM (inactive); in the assay with NCI-H226, > 100 µM (inactive); in the assay on RXF 393, > 100 µM (inactive); in the assay on HCC 2998, > 100 µM (inactive); in the assay on SF-539, > 100 µM (inactive). The values for the GI50 with ACHN and in the assay with T47D were > 100 µM (inactive) and 23.2 µM (inactive), respectively.

In the case of `CCOC(=O)CC(=O)C(=O)NN=C1NCCN1`, the GI50 in the assay with CCRF-CEM, in the assay with HOP-62, with SK-OV-3, in the assay on PC-3, in the assay with Hs-578T and in the assay on A549 was > 100 µM (inactive) each time. For the same molecule, the GI50 in the assay on NCI-H460, in the assay with SN12C, in the assay with EKVX, in the assay on COLO 205, in the assay with RPMI-8226 and in the assay with IGROV-1 was > 100 µM (inactive) each time. Further, the GI50 in the assay with MCF7, with SW-620, with NCI-H226, with RXF 393, in the assay with HCC 2998 and in the assay with SF-539 was > 100 µM (inactive) each time. The GI50 in the assay with ACHN and in the assay on T47D was > 100 µM (inactive) throughout.

On to `COC[C@H]1C(=O)NCC(=O)N2N=CCC[C@H]2C(=O)N(O)[C@H](C)C(=O)O[C@@H](C(C)C)[C@H](NC(=O)[C@@](C)(O)[C@]2(O)CC[C@@H](CC(C)C)[C@H](C)O2)C(=O)N2NCCC[C@@H]2C(=O)N1O`, for which the GI50 in the assay with CCRF-CEM was 0.0216 µM (active); with HOP-62, 0.0175 µM (active); with SK-OV-3, 0.0273 µM (active); in the assay on PC-3, 0.0175 µM (active); in the assay with Hs-578T it was 0.0179 µM (active); with A549 it was 0.019 µM (active). Besides, the GI50 is 0.0166 µM (active) in the assay on NCI-H460; 0.0185 µM (active) in the assay on SN12C; 0.0292 µM (active) in the assay on EKVX; 0.0175 µM (active) in the assay on COLO 205; 0.0208 µM (active) with RPMI-8226; 0.0157 µM (active) with IGROV-1. The GI50 is 0.0168 µM (active) in the assay with MCF7; 0.0157 µM (active) with SW-620; 0.0197 µM (active) in the assay on NCI-H226; 0.0172 µM (active) in the assay with RXF 393; 0.0169 µM (active) in the assay on HCC 2998; 0.0172 µM (active) with SF-539. Further, the GI50 with ACHN is 0.0324 µM (active); in the assay with T47D, 0.0228 µM (active).

With `CCCCCCCCCCC(O)[C@H]1CCC(C2CC[C@H]([C@H](O)CCCCCCCCCCC(O)CC3=CC(C)OC3=O)O2)O1` (stereo not given in full), the GI50 with CCRF-CEM is 1.94 µM (inactive); in the assay on HOP-62 it was 1.97 µM (inactive); in the assay on SK-OV-3, 3.18 µM (inactive); in the assay with PC-3, 1.7 µM (inactive); in the assay on Hs-578T, 1.7 µM (inactive); in the assay with A549 it was 1.44 µM (inactive). For the same molecule, the GI50 with NCI-H460 was 1.04 µM (active); in the assay with SN12C, 2.25 µM (inactive); with EKVX it was 1.23 µM (inactive); in the assay on COLO 205, 1.48 µM (inactive); with RPMI-8226, 2.21 µM (inactive); with IGROV-1, 1.66 µM (inactive). Further, the GI50 in the assay with MCF7 is 1.21 µM (inactive); in the assay with SW-620 it was 1.87 µM (inactive); with NCI-H226, 1.11 µM (active); in the assay with RXF 393, 1.76 µM (inactive); in the assay on HCC 2998, 3.59 µM (inactive); in the assay on SF-539, 1.56 µM (inactive). For the same molecule, the GI50 with ACHN was 1.24 µM (inactive); in the assay on T47D it was 2.23 µM (inactive).
